These results are taken from ChEMBL document CHEMBL3727356, “Therapeutic compounds and compositions” (2014).

Where only a bound is given, the exact number is not on record here.

The target of experiment [1] is Pyruvate kinase PKLR (Homo sapiens, UniProt P30613, R510Q). The experiment can be described thus: Activation of PKR R510Q mutant (unknown origin) incubated for 60 mins in presence of ADP, PEP and NADH by Spectraax microplate reader based assay.
Experiment [2] addresses Pyruvate kinase PKLR (Homo sapiens, UniProt P30613, R532W). The experiment can be described thus: Activation of PKR R532W mutant (unknown origin) incubated for 60 mins in presence of ADP, PEP and NADH by Spectraax microplate reader based assay.
Experiment [3] concerns the target T1, Pyruvate kinase PKLR (Homo sapiens, UniProt P30613). Briefly: Activation of wild type PKR (unknown origin) incubated for 60 mins in presence of ADP, PEP and NADH by Spectraax microplate reader based assay.
Experiment [4] deals with T1, Pyruvate kinase PKLR. Briefly: Activation of wild type PKR (unknown origin) by cell based assay.

T1 sequence (P30613 whole entry): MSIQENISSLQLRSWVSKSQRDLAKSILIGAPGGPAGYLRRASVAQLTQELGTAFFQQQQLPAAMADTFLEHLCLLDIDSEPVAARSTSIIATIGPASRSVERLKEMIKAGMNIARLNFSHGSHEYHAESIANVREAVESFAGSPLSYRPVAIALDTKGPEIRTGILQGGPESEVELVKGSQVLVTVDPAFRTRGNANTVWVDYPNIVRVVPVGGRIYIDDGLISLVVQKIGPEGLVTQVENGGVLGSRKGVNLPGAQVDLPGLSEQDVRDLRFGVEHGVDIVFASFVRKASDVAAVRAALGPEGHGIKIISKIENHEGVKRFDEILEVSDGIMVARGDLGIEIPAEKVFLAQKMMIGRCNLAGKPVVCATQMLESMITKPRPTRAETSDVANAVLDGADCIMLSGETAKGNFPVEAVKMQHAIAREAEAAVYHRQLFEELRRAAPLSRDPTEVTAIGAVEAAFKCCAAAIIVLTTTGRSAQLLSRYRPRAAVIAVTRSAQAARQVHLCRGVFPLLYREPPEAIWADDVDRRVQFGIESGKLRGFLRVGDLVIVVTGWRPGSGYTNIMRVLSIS
Chain of Pyruvate kinase PKLR (Homo sapiens, UniProt P30613, R510Q) (P30613 whole entry R510Q): as the sequence (P30613 whole entry) above, with R510Q counted along it
Chain of Pyruvate kinase PKLR (Homo sapiens, UniProt P30613, R532W) (P30613 whole entry R532W): as the sequence (P30613 whole entry) above, with R532W counted along it

Usually AC50 stands for the midpoint of the concentration-response curve, whichever way the signal moves. On to `CC(CC1(O)CCN(C(=O)c2ccc(NS(=O)(=O)c3cccc4scnc34)cc2)CC1)C(F)(F)F` (stereo not given), for which the AC50 on Pyruvate kinase PKLR [1], at Pyruvate kinase PKLR [2], on Pyruvate kinase PKLR [3] and on Pyruvate kinase PKLR [4] was below 100 nM each time.
As for `O=C(c1ccc(NS(=O)(=O)c2cccc3cccnc23)cc1OC(F)(F)F)N1CCC(O)(c2ccccc2Cl)CC1`, the AC50 at Pyruvate kinase PKLR [1], on Pyruvate kinase PKLR [2], at Pyruvate kinase PKLR [3] and on Pyruvate kinase PKLR [4] was below 100 nM throughout.
Take `Nc1nc2c(S(=O)(=O)Nc3ccc(C(=O)N4CCC(O)(c5ccccc5Cl)CC4)cc3)cccc2s1`: the AC50 at Pyruvate kinase PKLR [1], at Pyruvate kinase PKLR [2], on Pyruvate kinase PKLR [3] and on Pyruvate kinase PKLR [4] was below 100 nM throughout.
In the case of `CC(C)(C)CC1(O)CCN(C(=O)c2ccc(NS(=O)(=O)c3ccc(F)c4cccnc34)cc2)CC1`, the AC50 on Pyruvate kinase PKLR [1], on Pyruvate kinase PKLR [2], at Pyruvate kinase PKLR [3] and at Pyruvate kinase PKLR [4] was below 100 nM in each case.
Turning to `Cc1cnc2cccc(S(=O)(=O)Nc3ccc(C(=O)N4CCC(O)(CC(C)C)CC4)cc3)c2n1`, the half-maximal activity concentration (AC50) at Pyruvate kinase PKLR [1], on Pyruvate kinase PKLR [2], at Pyruvate kinase PKLR [3] and at Pyruvate kinase PKLR [4] was below 100 nM throughout.
As to `O=C(c1ccc(NS(=O)(=O)c2cccc3cccnc23)cc1)N1CCC(O)(c2cccc(F)c2Cl)CC1`, the concentration at half-maximal activity (AC50) on Pyruvate kinase PKLR [1], on Pyruvate kinase PKLR [2], on Pyruvate kinase PKLR [3] and at Pyruvate kinase PKLR [4] was below 100 nM each time.
As to `Cc1nc(F)ccc1C1(O)CCN(C(=O)c2ccc(NS(=O)(=O)c3cccc4cccnc34)cc2)CC1`, the AC50 at Pyruvate kinase PKLR [1], on Pyruvate kinase PKLR [2], on Pyruvate kinase PKLR [3] and on Pyruvate kinase PKLR [4] was below 100 nM each time.
On to `CC(C)(C)CC1(O)CCN(C(=O)c2ccc(NS(=O)(=O)c3cccc4nccnc34)cc2)CC1`, for which the AC50 at Pyruvate kinase PKLR [1], at Pyruvate kinase PKLR [2], on Pyruvate kinase PKLR [3] and at Pyruvate kinase PKLR [4] was below 100 nM throughout.
With `CC(CC1(O)CCN(C(=O)c2ccc(NS(=O)(=O)c3cccc4sc(N)nc34)cc2)CC1)C(F)(F)F` (stereo not given), the half-maximal activity concentration (AC50) at Pyruvate kinase PKLR [1], on Pyruvate kinase PKLR [2], at Pyruvate kinase PKLR [3] and on Pyruvate kinase PKLR [4] was below 100 nM each time.
With `CC(C)CC1(O)CCN(C(=O)c2ccc(NS(=O)(=O)c3cccc4c(O)ncnc34)cc2)CC1`, the AC50 on Pyruvate kinase PKLR [1], at Pyruvate kinase PKLR [2], on Pyruvate kinase PKLR [3] and at Pyruvate kinase PKLR [4] was below 100 nM each time.
As for `COc1ccccc1CC1(O)CCN(C(=O)c2ccc(NS(=O)(=O)c3cccc4cccnc34)cc2)CC1`, the AC50 at Pyruvate kinase PKLR [1], at Pyruvate kinase PKLR [2], at Pyruvate kinase PKLR [3] and on Pyruvate kinase PKLR [4] was below 100 nM in each case.
As for `O=C(c1ccc(NS(=O)(=O)c2cccc3cc(F)cnc23)cc1)N1CCC(O)(Cc2ccccc2)CC1`, the AC50 on Pyruvate kinase PKLR [1], on Pyruvate kinase PKLR [2], on Pyruvate kinase PKLR [3] and at Pyruvate kinase PKLR [4] was below 100 nM in each case.
Regarding `CC(C)CC1(O)CCN(C(=O)c2ccc(NS(=O)(=O)c3cccc4ccc(N)nc34)cc2)CC1`, the AC50 on Pyruvate kinase PKLR [1], on Pyruvate kinase PKLR [2], at Pyruvate kinase PKLR [3] and on Pyruvate kinase PKLR [4] was below 100 nM in each case.
As for `O=C(c1ccc(NS(=O)(=O)c2cccc3cccnc23)cc1)N1CCC(O)(Cc2ccccc2F)CC1`, the AC50 at Pyruvate kinase PKLR [1], on Pyruvate kinase PKLR [2], at Pyruvate kinase PKLR [3] and on Pyruvate kinase PKLR [4] was below 100 nM throughout.
Take `O=C(c1ccc(NS(=O)(=O)c2cccc3c2OCCC3)cc1)N1CCC(O)(c2ccccc2Cl)CC1`: the AC50 on Pyruvate kinase PKLR [1], at Pyruvate kinase PKLR [2], at Pyruvate kinase PKLR [3] and at Pyruvate kinase PKLR [4] was below 100 nM in each case.
Turning to `O=C(c1ccc(NS(=O)(=O)c2cccc3cccnc23)cc1)N1CCC(O)(c2cccc(F)c2F)CC1`, the AC50 at Pyruvate kinase PKLR [1], on Pyruvate kinase PKLR [2], at Pyruvate kinase PKLR [3] and at Pyruvate kinase PKLR [4] was below 100 nM throughout.
For the molecule `O=C(c1ccc(NS(=O)(=O)c2cccc3cccnc23)cc1OC(F)F)N1CCC(O)(c2ccccc2Cl)CC1`, the AC50 at Pyruvate kinase PKLR [1], on Pyruvate kinase PKLR [2], at Pyruvate kinase PKLR [3] and on Pyruvate kinase PKLR [4] was below 100 nM each time.
As to `O=C(c1ccc(NS(=O)(=O)c2cccc3cccnc23)cc1)N1CCC(O)(Cc2cccc(F)c2)CC1`, the AC50 on Pyruvate kinase PKLR [1], at Pyruvate kinase PKLR [2], at Pyruvate kinase PKLR [3] and at Pyruvate kinase PKLR [4] was below 100 nM in each case.
Consider `O=C(c1ccc(NS(=O)(=O)c2cccc3cccnc23)cc1)N1CCC(O)(CC2CCC2)CC1`, for which the AC50 at Pyruvate kinase PKLR [1], at Pyruvate kinase PKLR [2], at Pyruvate kinase PKLR [3] and at Pyruvate kinase PKLR [4] was below 100 nM throughout.
Consider `O=C(c1ccc(NS(=O)(=O)c2cccc3cccnc23)cc1)N1CCC(O)(Cc2c(F)cccc2F)CC1`, for which the AC50 on Pyruvate kinase PKLR [1], on Pyruvate kinase PKLR [2], at Pyruvate kinase PKLR [3] and at Pyruvate kinase PKLR [4] was below 100 nM each time.
Take `O=C(c1ccc(NS(=O)(=O)c2cccc3cccnc23)c(F)c1)N1CCC(O)(c2ccccc2Cl)CC1`: the half-maximal activity concentration (AC50) at Pyruvate kinase PKLR [1], on Pyruvate kinase PKLR [2], at Pyruvate kinase PKLR [3] and at Pyruvate kinase PKLR [4] was below 100 nM in each case.
Take `CC(C)CC1(O)CCN(C(=O)c2ccc(NS(=O)(=O)c3cccc4scnc34)cc2)CC1`: the AC50 on Pyruvate kinase PKLR [1], on Pyruvate kinase PKLR [2], at Pyruvate kinase PKLR [3] and on Pyruvate kinase PKLR [4] was below 100 nM each time.
For the molecule `CC(C)CC1(O)CCN(C(=O)c2ccc(NS(=O)(=O)c3cccc4sc(N)nc34)cc2)CC1`, the AC50 at Pyruvate kinase PKLR [1], at Pyruvate kinase PKLR [2], on Pyruvate kinase PKLR [3] and at Pyruvate kinase PKLR [4] was below 100 nM in each case.
Regarding `O=C(c1ccc(NS(=O)(=O)c2cccc3cccnc23)cc1)N1CCC(O)(Cc2ccccc2C(F)(F)F)CC1`, the AC50 at Pyruvate kinase PKLR [1], on Pyruvate kinase PKLR [2], on Pyruvate kinase PKLR [3] and on Pyruvate kinase PKLR [4] was below 100 nM throughout.
Turning to `O=C(c1ccc(NS(=O)(=O)c2cccc3c(O)ncnc23)cc1)N1CCC(O)(CCCC(F)(F)F)CC1`, the concentration at half-maximal activity (AC50) at Pyruvate kinase PKLR [1], on Pyruvate kinase PKLR [2], on Pyruvate kinase PKLR [3] and on Pyruvate kinase PKLR [4] was below 100 nM throughout.
Turning to `O=C(c1ccc(NS(=O)(=O)c2ccc(F)c3nccnc23)cc1)N1CCC(O)(c2cccc(F)c2F)CC1`, the AC50 on Pyruvate kinase PKLR [1] is at most 1000 nM; at Pyruvate kinase PKLR [2], below 100 nM; on Pyruvate kinase PKLR [3], below 100 nM; at Pyruvate kinase PKLR [4], at least 1010 nM.
Consider `Cc1cc(C(=O)N2CCC(O)(Cc3ccccc3)CC2)ccc1NS(=O)(=O)c1cccc2cccnc12`, for which the AC50 on Pyruvate kinase PKLR [1], at Pyruvate kinase PKLR [2], at Pyruvate kinase PKLR [3] and at Pyruvate kinase PKLR [4] was below 100 nM in each case.
`CC(C)CC1(C=O)CCN(C(=O)c2ccc(NS(=O)(=O)c3cccc4cccnc34)cc2)CC1`: the concentration at half-maximal activity (AC50) at Pyruvate kinase PKLR [1], on Pyruvate kinase PKLR [2], at Pyruvate kinase PKLR [3] and on Pyruvate kinase PKLR [4] was below 100 nM throughout.
As for `Nc1nc2c(S(=O)(=O)Nc3ccc(C(=O)N4CCC(O)(CCCC(F)(F)F)CC4)cc3)cccc2s1`, the AC50 at Pyruvate kinase PKLR [1], on Pyruvate kinase PKLR [2], at Pyruvate kinase PKLR [3] and on Pyruvate kinase PKLR [4] was below 100 nM throughout.
With `Cc1ccccc1C1(O)CCN(C(=O)c2ccc(NS(=O)(=O)c3cccc4cccnc34)cc2)CC1`, the AC50 on Pyruvate kinase PKLR [1], on Pyruvate kinase PKLR [2], at Pyruvate kinase PKLR [3] and on Pyruvate kinase PKLR [4] was below 100 nM each time.
Take `O=C(c1ccc(NS(=O)(=O)c2ccc3nsnc3c2)cc1)N1CCC(O)(Cc2ccccc2)CC1`: the AC50 on Pyruvate kinase PKLR [1] is at most 1000 nM; at Pyruvate kinase PKLR [2] it was below 100 nM; at Pyruvate kinase PKLR [3], below 100 nM; on Pyruvate kinase PKLR [4], at most 1000 nM.
Turning to `CCCCC1(O)CCN(C(=O)c2ccc(NS(=O)(=O)c3cccc4cccnc34)cc2)CC1`, the AC50 on Pyruvate kinase PKLR [1], at Pyruvate kinase PKLR [2], at Pyruvate kinase PKLR [3] and at Pyruvate kinase PKLR [4] was below 100 nM each time.
Turning to `CC(C)CC1(O)CCN(C(=O)c2ccc(NS(=O)(=O)c3cccc4cccnc34)cc2)CC1`, the AC50 at Pyruvate kinase PKLR [1], at Pyruvate kinase PKLR [2], at Pyruvate kinase PKLR [3] and on Pyruvate kinase PKLR [4] was below 100 nM each time.
Take `O=C(c1ccc(NS(=O)(=O)c2cccc3cccnc23)cc1)N1CCC(O)(CC2CC2)CC1`: the AC50 on Pyruvate kinase PKLR [1], at Pyruvate kinase PKLR [2], on Pyruvate kinase PKLR [3] and on Pyruvate kinase PKLR [4] was below 100 nM each time.
For `O=C(c1ccc(NS(=O)(=O)c2cccc3scnc23)cc1)N1CCC(O)(Cc2ccccc2C(F)(F)F)CC1`, the AC50 at Pyruvate kinase PKLR [1], at Pyruvate kinase PKLR [2], on Pyruvate kinase PKLR [3] and at Pyruvate kinase PKLR [4] was below 100 nM each time.
Consider `CC(C)CC1(O)CCN(C(=O)c2ccc(NS(=O)(=O)c3cccc4nccnc34)cc2)CC1`, for which the AC50 on Pyruvate kinase PKLR [1], at Pyruvate kinase PKLR [2], on Pyruvate kinase PKLR [3] and at Pyruvate kinase PKLR [4] was below 100 nM throughout.
In the case of `CNc1nc2c(S(=O)(=O)Nc3ccc(C(=O)N4CCC(O)(CC(C)C)CC4)cc3)cccc2s1`, the concentration at half-maximal activity (AC50) at Pyruvate kinase PKLR [1], at Pyruvate kinase PKLR [2], on Pyruvate kinase PKLR [3] and at Pyruvate kinase PKLR [4] was below 100 nM throughout.
In the case of `Nc1cnc2c(S(=O)(=O)Nc3ccc(C(=O)N4CCC(O)(c5cccc(F)c5F)CC4)cc3)cccc2n1`, the AC50 at Pyruvate kinase PKLR [1], on Pyruvate kinase PKLR [2], on Pyruvate kinase PKLR [3] and at Pyruvate kinase PKLR [4] was below 100 nM throughout.
With `O=C(c1ccc(NS(=O)(=O)c2cccc3nccnc23)cc1)N1CCC(O)(CCCC(F)(F)F)CC1`, the AC50 on Pyruvate kinase PKLR [1], at Pyruvate kinase PKLR [2], at Pyruvate kinase PKLR [3] and on Pyruvate kinase PKLR [4] was below 100 nM throughout.
Turning to `O=C(c1ccc(NS(=O)(=O)c2cccc3cccnc23)cc1)N1CCC(O)(c2ccccc2C(F)(F)F)CC1`, the AC50 on Pyruvate kinase PKLR [1], on Pyruvate kinase PKLR [2], on Pyruvate kinase PKLR [3] and at Pyruvate kinase PKLR [4] was below 100 nM in each case.
